According to patent US20230391786A1, “cGAS INHIBITORS” (Eli Lilly and Company, priority 2022, published 2023):
Counter-ions that a name gives are not always drawn. Like-named read-outs stand apart in the source and are kept apart here.

Experiments:
[1] = tested on: cGAS activity in THP1 cells (IFNb as marker); experiment: Cellular assay to measure cGAS activity (IFNb production in PMA-differentiated THP1 cells stimulated by RDG-Adenovirus-GFP); assay type: cell-based, human; conditions: PMA differentiated, RDG-Adenovirus-GFP 1000 MOI, IFNb AlphaLISA, overnight incubation, read-out: IC50 (μM), Cellular assay for Compounds 95-348
Outline: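 PMA-differentiated THP1 cells were infected with RDG-Adenovirus-GFP at 1000 MOI for 4 h, then exposed overnight to test compounds. IFNb in the supernatant was quantified by AlphaLISA as a cGAS activity marker, and IC50 was fitted with a 4-parameter logistic equation.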

recombinant human cGAS = recombinant human cGAS (Homo sapiens (Human), UniProt Q8N884); experiment: In vitro inhibition assay of cGAS activity (cGAMP production, RapidFire mass spectrometry); assay type: biochemical; conditions: 10 nM recombinant human cGAS, 60 nM 75-bp dsDNA, ATP, GTP, room temperature 3 hours, read-out: IC50 (μM), In vitro inhibition assay for Compounds 95-348
Sequence of recombinant human cGAS (Q8N884 whole entry): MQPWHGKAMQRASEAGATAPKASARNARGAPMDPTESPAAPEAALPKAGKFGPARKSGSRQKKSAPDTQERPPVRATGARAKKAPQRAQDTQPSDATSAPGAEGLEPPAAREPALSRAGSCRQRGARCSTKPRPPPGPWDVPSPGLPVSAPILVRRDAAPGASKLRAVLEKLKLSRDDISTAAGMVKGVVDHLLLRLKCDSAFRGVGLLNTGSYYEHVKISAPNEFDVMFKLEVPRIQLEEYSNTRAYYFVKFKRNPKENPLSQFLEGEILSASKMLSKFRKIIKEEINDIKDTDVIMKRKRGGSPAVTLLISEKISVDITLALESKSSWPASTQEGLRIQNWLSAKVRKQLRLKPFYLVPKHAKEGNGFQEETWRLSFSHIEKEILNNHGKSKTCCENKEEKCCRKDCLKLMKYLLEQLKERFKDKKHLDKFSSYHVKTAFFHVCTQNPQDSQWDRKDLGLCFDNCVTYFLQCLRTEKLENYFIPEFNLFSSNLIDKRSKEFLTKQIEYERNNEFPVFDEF
Outline: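 Full-length His6-tagged human cGAS (10 nM, E. coli-expressed) was incubated 3 h at room temperature with 60 nM 75-bp dsDNA, ATP, 50 μM GTP and compound at pH 7.5 with 5 mM MgCl2. cGAMP formation was measured by RapidFire mass spectrometry, and IC50 was taken from a 4-parameter logistic fit.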

[2] = Homo sapiens, THP-1, THP1 cells

SMILES	IC50 [1, 2] [µM]	IC50 (recombinant human cGAS) [µM]	IC50 ([1]; THP1 cells) [µM]
OCCc1cc(-n2cc(-c3cn[nH]c3)c3ccc(Cl)c(Cl)c32)on1 [Example 211, 2-[5-[6,7-Dichloro-3-(1H-pyrazol-4-yl)indol-1-yl]isoxazol-3-yl]ethanol]	2.28	0.0342	
OCCCNc1cc(Cl)cc2c1c(-c1cn[nH]c1)cn2-c1cn(CCO)nn1 [Example 200, 3-[[6-Chloro-1-[1-(2-hydroxyethyl)triazol-4-yl]-3-(1H-pyrazol-4-yl)indol-4-yl]amino]propan-1-ol]	0.292	0.0282	
OCCCOc1cc(Cl)c(Cl)c2[nH]c(CO)c(-c3cn[nH]c3)c12 [Example 338, 3-((6,7-Dichloro-2-(hydroxymethyl)-3-(1H-pyrazol-4-yl)-1H-indol-4-yl)oxy)propan-1-ol]	0.198	0.00474	
OCCC1CCn2c1c(-c1cn[nH]c1)c1ccc(Cl)c(Cl)c12 (single isomer, unassigned; isomer 2) [Example 243, 2-(5,6-Dichloro-9-(1H-pyrazol-4-yl)-2,3-dihydro-1H-pyrrolo[1,2-a]indol-1-yl)ethan-1-ol isomer 2]		0.0472	9.35
CC(C)(O)C(=O)NC1CCc2c(-c3cn[nH]c3)c3ccc(Cl)c(Cl)c3n2C1 (stereo not drawn) [Example 189, N-[3,4-Dichloro-10-(1H-pyrazol-4-yl)-6,7,8,9-tetrahydropyrido[1,2-a]indol-7-yl]-2-hydroxy-2-methyl-propanamide]	1.89	0.0272	
OCCCNc1cc(Cl)c(Cl)c2c1c(-c1cn[nH]c1)cn2-c1cn(CCO)nn1 [Example 198, 3-[[6,7-Dichloro-1-[1-(2-hydroxyethyl)triazol-4-yl]-3-(1H-pyrazol-4-yl)indol-4-yl]amino]propan-1-ol]	0.395	0.011	
OC[C@@H]1C[C@@H]1Oc1cc(Cl)c(Cl)c2[nH]cc(-c3cn[nH]c3)c12 (racemic) [Example 137, Cis-[2-[[6,7-Dichloro-3-(1H-pyrazol-4-yl)-1H-indol-4-yl]oxy]cyclopropyl]methanol hydrochloride]	1.38	0.0165	
NCC(=O)NCc1[nH]c2c(Cl)c(Cl)ccc2c1-c1cn[nH]c1 [Example 216, 2-Amino-N-[[6,7-dichloro-3-(1H-pyrazol-4-yl)-1H-indol-2-yl]methyl]acetamide formic acid salt]	4.17	0.0598	
CN(C)C(=O)NCC(=O)N1CCn2c(c(-c3cn[nH]c3)c3ccc(Cl)c(Cl)c32)C1 [Example 182, 3-[2-[6,7-Dichloro-10-(1H-pyrazol-4-yl)-3,4-dihydro-1H-pyrazino[1,2-a]indol-2-yl]-2-oxo-ethyl]-1,1-dimethyl-urea]	> 10	0.0416	
O=C(CO)NCc1[nH]c2c(Cl)c(Cl)cc(NC(=O)CO)c2c1-c1cn[nH]c1 [Example 221, N-[[6,7-Dichloro-4-[(2-hydroxyacetyl)amino]-3-(1H-pyrazol-4-yl)-1H-indol-2-yl]methyl]-2-hydroxy-acetamide]	> 10	0.0238	
CC(=O)Nc1cc(Cl)c(Cl)c2c1c(-c1cn[nH]c1)cn2-c1cn(CCO)nn1 [Example 199, N-[6,7-Dichloro-1-[1-(2-hydroxyethyl)triazol-4-yl]-3-(1H-pyrazol-4-yl)indol-4-yl]acetamide]	2.66	0.0519	
O=C1COCCN1CCC(=O)N1CCn2c(c(-c3cn[nH]c3)c3ccc(Cl)c(Cl)c32)C1 [Example 304, 4-(3-(6,7-Dichloro-10-(1H-pyrazol-4-yl)-3,4-dihydropyrazino[1,2-a]indol-2(1H)-yl)-3-oxopropyl)morpholin-3-one]	8.47	0.0351	
OCCCNc1cc(Cl)c(Cl)c2[nH]nc(-c3cn[nH]c3)c12 [Example 250, 3-[[6,7-Dichloro-3-(1H-pyrazol-4-yl)-1H-indazol-4-yl]amino]propan-1-ol]	0.376	0.0052	
OCCCNc1cc(Cl)c(Cl)c2[nH]cc(-c3cn[nH]c3)c12 [Example 144, 3-[[6,7-Dichloro-3-(1H-pyrazol-4-yl)-1H-indol-4-yl]amino]propan-1-ol]	1.47	0.00433	
O[C@H]1CC[C@H](Nc2cc(Cl)c(Cl)c3[nH]cc(-c4cn[nH]c4)c23)C1 (racemic) [Example 209, trans-3-[[6,7-Dichloro-3-(1H-pyrazol-4-yl)-1H-indol-4-yl]amino]cyclopentanol (racemic mixture)]	0.351	0.0158	
CS(=O)(=O)NC1CCn2c1c(-c1cn[nH]c1)c1ccc(Cl)c(Cl)c12 (stereo not drawn) [Example 238, N-(5,6-Dichloro-9-(1H-pyrazol-4-yl)-2,3-dihydro-1H-pyrrolo[1,2-a]indol-1-yl)methanesulfonamide]	> 10	0.046	
COc1cc2c(-c3cn[nH]c3)cn(-c3cccnn3)c2cc1Cl [Example 341, 6-Chloro-5-methoxy-3-(1H-pyrazol-4-yl)-1-(pyridazin-3-yl)-1H-indole]	0.8	0.0276	
CC(=O)N1CCn2c(c(-c3cn[nH]c3)c3c(NC(=O)C(F)F)cc(Cl)c(Cl)c32)C1 [Example 263, N-[2-Acetyl-6,7-dichloro-10-(1H-pyrazol-4-yl)-3,4-dihydro-1H-pyrazino[1,2-a]indol-9-yl]-2,2-difluoro-acetamide]	0.509	0.0173	
CC(=O)N1CCOC(CC(=O)N2CCn3c(c(-c4cn[nH]c4)c4ccc(Cl)c(Cl)c43)C2)C1 (single isomer, unassigned) [Example 264, 2-(4-acetylmorpholin-2-yl)-1-(6,7-dichloro-10-(1H-pyrazol-4-yl)-3,4-dihydropyrazino[1,2-a]indol-2(1H)-yl)ethan-1-one]	> 10	0.0462	
O=C1CC(CC(=O)N2CCn3c(c(-c4cn[nH]c4)c4c(NC(=O)C(F)F)cc(Cl)c(Cl)c43)C2)CCN1 (stereo not drawn) [Example 276, N-[6,7-Dichloro-2-[2-(2-oxo-4-piperidyl)acetyl]-10-(1H-pyrazol-4-yl)-3,4-dihydro-1H-pyrazino[1,2-a]indol-9-yl]-2,2-difluoro-acetamide]	> 10	0.0405	
O=C(CC1COCCO1)N1CCn2c(c(-c3cn[nH]c3)c3ccc(Cl)c(Cl)c32)C1 (stereo not drawn) [Example 299, 1-(6,7-Dichloro-10-(1H-pyrazol-4-yl)-3,4-dihydropyrazino[1,2-a]indol-2(1H)-yl)-2-(1,4-dioxan-2-yl)ethan-1-one]	> 10	0.0257	
CCC(=O)NC1CCn2c1c(-c1cn[nH]c1)c1ccc(Cl)c(Cl)c12 (stereo not drawn) [Example 239, N-(5,6-Dichloro-9-(1H-pyrazol-4-yl)-2,3-dihydro-1H-pyrrolo[1,2-a]indol-1-yl)propionamide]	> 10	0.0613	
C[C@@H](O)C(=O)NCc1[nH]c2c(Cl)c(Cl)ccc2c1-c1cn[nH]c1 [Example 167, (R)—N-((6,7-Dichloro-3-(1H-pyrazol-4-yl)-1H-indol-2-yl)methyl)-2-hydroxypropanamide]	1.86	0.0672	
OCCCOc1cc(Cl)c(Cl)c2c1c(-c1cn[nH]c1)c1n2CC(O)CC1 (stereo not drawn) [Example 348, 3,4-Dichloro-1-(3-hydroxypropoxy)-10-(1H-pyrazol-4-yl)-6,7,8,9-tetrahydropyrido[1,2-a]indol-7-ol]	0.365	0.00695	
O=C(CO)NC1CCn2c1c(-c1cn[nH]c1)c1ccc(Cl)c(Cl)c12 (single isomer, unassigned) [Example 346, N-(5,6-Dichloro-9-(1H-pyrazol-4-yl)-2,3-dihydro-1H-pyrrolo[1,2-a]indol-1-yl)-2-hydroxyacetamide]		0.00769	0.914
CC(=O)N[C@H]1Cc2c(-c3cn[nH]c3)c3c(OCC#N)cc(Cl)c(Cl)c3n2C1 [Example 245, (S)—N-(5,6-Dichloro-8-(cyanomethoxy)-9-(1H-pyrazol-4-yl)-2,3-dihydro-1H-pyrrolo[1,2-a]indol-2-yl)acetamide]	0.872	0.0122	
O=C(CO)NCc1[nH]c2c(Cl)c(Cl)ccc2c1-c1cn[nH]c1 [Example 162, N-[[6,7-Dichloro-3-(1H-pyrazol-4-yl)-1H-indol-2-yl]methyl]-2-hydroxy-acetamide]	0.761	0.0152	
CC(=O)NC1CCCn2c1c(-c1cn[nH]c1)c1ccc(Cl)c(Cl)c12 (stereo not drawn) [Example 116, N-(3,4-Dichloro-10-(1H-pyrazol-4-yl)-6,7,8,9-tetrahydropyrido[1,2-a]indol-9-yl)acetamide]	5.23	0.0217	
Cc1nc(C(=O)N2CCn3c(c(-c4cn[nH]c4)c4c(OCC#N)cc(Cl)c(Cl)c43)C2)no1 [Example 282, 2-((6,7-Dichloro-2-(5-methyl-1,2,4-oxadiazole-3-carbonyl)-10-(1H-pyrazol-4-yl)-1,2,3,4-tetrahydropyrazino[1,2-a]indol-9-yl)oxy)acetonitrile]	2.99	0.00896	
F[C@H]1C[C@@H](Oc2cc(Cl)c(Cl)c3[nH]cc(-c4cn[nH]c4)c23)C1 [Example 126, 6,7-Dichloro-4-(cis-3-fluorocyclobutoxy)-3-(1H-pyrazol-4-yl)-1H-indole]	1.45	0.0358	
